Laboratory results taken from article PMC6270872, “Xanthenedione Derivatives, New Promising Antioxidant and Acetylcholinesterase Inhibitor Agents” (Molecules, 2014).
Converted amounts (≈) assume the structure as drawn. “Also recorded” adds a separate entry of the source.

Columns and labels:
[1] = DPPH radical scavenging assay; details: for EC50: concentration of the compound to reduce the DPPH radical concentration to 50%, ± SD; for Radical Scavenging Activity AE (antiradical efficiency): AE = 1/(EC50 × TEC50), TEC50 = time to reach the steady state for the EC50
Procedure: Antioxidant activity was assayed by the DPPH (1,1-diphenyl-2-picrylhydrazyl) radical scavenging assay using the Blois method modified. […] In each assay, a control was prepared, in which the compound or standard (quercetin and BHT) was substituted by the same amount of solvent. The mixture was shaken vigorously and left to stand for 30 min in the dark, and the absorbance was then measured at 517 nm. The capability to scavenge the DPPH radical was calculated using the following equation: DPPH scavenging activity (%) = [(Ac − As)/Ac] × 100(1) where, Ac is the absorbance of the control and As is the absorbance of the compound or standard. All assays were carried out in triplicate and results expressed as EC50, i.e., as the concentration yielding 50% scavenging of DPPH, calculated by interpolation from the % vs. concentration curve.

[2] = Reducing power, potassium ferricyanide reduction method; details: four concentrations, 20–80 μg/mL; absorbance at 700 nm; references BHT and quercetin (Figure 3)
Procedure: The reductive potential of the compounds and standard was determined according to a previously described method. An aliquot of the sample or standard (1.0 mL) at various concentrations (20–80 μg/mL in DMSO) was mixed with phosphate buffer (0.2 mol L^−^1, pH 6.6, 1.25 mL) and 1% potassium ferricyanide (1.25 mL). The mixture was incubated at 50 °C for 20 min. After cooling, 1.25 mL of 10% trichloroacetic acid was added and the mixture incubated at 50 °C for 10 min. 1.25 mL of this solution was mixed with distilled water (1.25 mL) and 0.1% iron(III) chloride (0.25 mL) and the absorbance measured at 700 nm using an appropriate blank. Assays were carried out in triplicate.

[3] = molecular target: T1, AChE from Electrophorus electricus (Electrophorus electricus, UniProt O42275); experiment: biochemical; format: biochemical; details: for IC50: ± SD, n = 4, read-out: Anti-AChE IC50
T1 construct: purchased Sigma-Aldrich Chemical Company, St. Louis, MO, USA
Procedure: The AChE activity was evaluated using the method described by Ellman et al. and Ingkaninan et al., modified. Briefly, 10 μL of 0.25 U/mL AChE from Electrophorus electricus (Sigma-Aldrich® Chemical Company, St. Louis, MO, USA) was added to the wells containing sample in different concentrations, and allowed to incubate for 5 min. Reaction was started by the addition 5 μL of 3 mM 5,5'-dithiobis[2-nitrobenzoic acid] (DTNB,) and 5 μL of 75 mM acetylthiocholine iodide (ATCI; Fluka Chemicals, Buchs, Switzerland). The absorbance was then read at 415 nm every 2.5 min for 7.5 min in a Bio Rad Model 680 Microplate Reader (Bio-Rad Laboratories, Inc., Hercules, CA, USA). Percentage of enzymatic inhibition was calculated relatively to the control without inhibitor. Every experiment was done in quadruplicate. […] PROGRAM Version 1.4 was used.

[4] = Maximum soluble concentration in the DPPH assay; format: physicochemical; details: ethanol (ethanolic solution of the DPPH assay), ethanolic solutions, read-out: maximum concentration at which the compound is soluble
Procedure: Antioxidant activity was assayed by the DPPH (1,1-diphenyl-2-picrylhydrazyl) radical scavenging assay using the Blois method modified [24]. Briefly, different volumes of the ethanolic solutions of each compound or standard (1–100 µM) were added fixed volume of DPPH ethanolic solution (400 µL of the solution 0.6 mM) and solvent (ethanol) to obtain, in each case, a fixed total volume. In each assay, a control was prepared, in which the compound or standard (quercetin and BHT) was substituted by the same amount of solvent. The mixture was shaken vigorously and left to stand for 30 min in the dark, and the absorbance was then measured at 517 nm. The capability to scavenge the DPPH radical was calculated using the following equation: DPPH scavenging activity (%) = [(Ac − As)/Ac] × 100(1) where, Ac is the absorbance of the control and As is the absorbance of the compound or standard. All assays were carried out in triplicate and results expressed as EC50, i.e., as the concentration yielding 50% scavenging of DPPH, calculated by interpolation from the % vs. concentration curve.

T1 sequence (O42275 24-633): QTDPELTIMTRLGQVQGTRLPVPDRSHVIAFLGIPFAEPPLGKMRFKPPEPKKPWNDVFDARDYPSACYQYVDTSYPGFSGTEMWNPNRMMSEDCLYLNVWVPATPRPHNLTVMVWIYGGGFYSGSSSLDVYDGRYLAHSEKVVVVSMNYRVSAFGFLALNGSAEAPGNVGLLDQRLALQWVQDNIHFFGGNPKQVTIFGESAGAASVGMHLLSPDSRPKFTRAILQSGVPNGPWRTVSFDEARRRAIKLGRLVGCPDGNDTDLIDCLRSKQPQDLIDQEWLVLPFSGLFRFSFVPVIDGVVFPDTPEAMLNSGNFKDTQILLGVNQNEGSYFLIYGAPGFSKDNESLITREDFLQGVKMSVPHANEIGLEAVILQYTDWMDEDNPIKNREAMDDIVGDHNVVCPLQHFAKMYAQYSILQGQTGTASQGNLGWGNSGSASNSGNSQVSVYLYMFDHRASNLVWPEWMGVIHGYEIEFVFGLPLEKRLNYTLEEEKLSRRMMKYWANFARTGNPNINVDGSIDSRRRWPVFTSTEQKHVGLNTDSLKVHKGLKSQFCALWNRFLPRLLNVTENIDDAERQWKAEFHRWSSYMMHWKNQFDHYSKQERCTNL

SMILES: O=C1CC(c2ccc(O)cc2)C(=Cc2ccc(O)cc2)c2oc3cccc(O)c3c(=O)c21 (centres unmarked) [Compound 5c]
- DPPH quenched ([1]; at 552 µM, the maximum soluble concentration): 36%
- EC50 [1]: > 552 µM
- Reducing power (reduction of ferric ion) [2]: did not significantly reduce ferric ion
- Type of AChE inhibition [3]: mixed type inhibition
- IC50 [3]: 41.1 ± 6.1 µM
- solubility [4]: 552 µM (≈ 235 µg/mL)

SMILES: Cc1ccc(/C=C2/c3oc4cccc(O)c4c(=O)c3C(=O)CC2c2ccc(C)cc2)cc1 (centres unmarked) [Compound 5b, (E)-8-Hydroxy-4-(4-methylbenzylidene)-3-(4-methylphenyl)-3,4-dihydro-1H-xanthene-1,9(2H)-dione]
- IC50 [3]: > 355 µM

SMILES: O=C1CC(c2ccccc2Cl)/C(=C\c2ccccc2Cl)c2oc3cccc(O)c3c(=O)c21 (centres unmarked) [Compound 5f, (E)-4-(2-Chlorobenzylidene)-3-(2-chlorophenyl)-8-hydroxy-3,4-dihydro-1H-xanthene-1,9(2H)-dione]
- IC50 [3]: > 325 µM

SMILES: O=C1CC(c2ccc(Cl)cc2)C(=Cc2ccc(Cl)cc2)c2oc3cccc(O)c3c(=O)c21 (centres unmarked) [Compound 5d]
- IC50 [3]: > 325 µM

SMILES: O=C1CC(c2ccc(O)c(O)c2)C(=Cc2ccc(O)c(O)c2)c2oc3cccc(O)c3c(=O)c21 (centres unmarked) [Compound 5e, (E)-8-Hydroxy-4-(3,4-dihydroxybenzylidene)-3-(3,4-dihydroxyphenyl)-3,4-dihydro-1H-xanthene-1,9-(2H)-dione]
- Radical Scavenging Activity AE (antiradical efficiency) [1]: 0.026
- EC50 [1]: 3.79 ± 0.06 µM
- Reducing power (reduction of ferric ion) [2]: higher reduction capacity than BHT and similar to quercetin; also recorded: more efficient than BHT and similar to quercetin
- Type of AChE inhibition [3]: almost pure competitive type inhibition
- IC50 [3]: 31 ± 0.09 µM

SMILES: O=c1c(O)c(-c2ccc(O)c(O)c2)oc2cc(O)cc(O)c12 [Quercetin, reference compound]
- Radical Scavenging Activity AE (antiradical efficiency) [1]: 0.0042
- EC50 [1]: 5.97 ± 0.11 µM

SMILES: O=C1CC(c2ccccc2)C(=Cc2ccccc2)c2oc3cccc(O)c3c(=O)c21 (centres unmarked) [Compound 5a, (E)-3-Aryl-4-benzylidene-8-hydroxy-3,4-dihydro-1H-xanthene-1,9(2H)-dione]
- Reducing power (reduction of ferric ion) [2]: did not significantly reduce ferric ion
- IC50 [3]: > 381 µM

SMILES: Cc1c(C)c2c(c(C)c1O)CCC(C)(C(=O)O)O2 (centres unmarked) [Trolox, reference compound]
- Radical Scavenging Activity AE (antiradical efficiency) [1]: 0.011
- EC50 [1]: 18.7 ± 0.65 µM
